From paper PMC11436758, “Computer-aided drug design to generate a unique antibiotic family” (Nature Communications, 2024)
Converted amounts (≈) assume the structure as drawn. “And” between values parts separate entries of the source, which are not always exact repeats. Identical values can stand only once. Like-named read-outs stand apart in the source and are kept apart here.

Tests used:
MRSA (ATCC 33591) = test: MIC, CLSI broth microdilution; assay type: cell-based, S. aureus; conditions: three individual replicates
Experimental: The medium employed for the assay was Mueller Hinton II Broth (MHB II; Becton-Dickinson, Sparks, MD, USA). Agar plates used for the organisms were trypticase soy agar plus 5% sheep blood (BD; Sparks, MD, USA). MIC assay plates were prepared using the CLSI broth microdilution procedure. Automated liquid handlers (Multidrop 384, Biomek 2000 and Biomek FX) were used to conduct serial dilutions and liquid transfers. A standardized inoculum of each organism was prepared per CLSI methods. Suspensions were prepared to equal a 0.5 McFarland standard, followed by a 1:20 dilution in test media. The inocula were dispensed into sterile reservoirs divided by length (Beckman Colter) and the Biomek 2000 was used to inoculate the plates. Daughter plates were placed on the Biomek 2000 work surface in reverse orientation so that inoculation took place from low to high drug concentration. The Biomek 2000 delivered 10 μL of the diluted suspension into each well. These inoculations yielded a final cell concentration in the daughter plates of ~5 × 10^5 colony-forming units/mL in each well. The wells of the daughter plates ultimately contained 185 μL of broth, 5 μL of drug solution, and 10 μL of bacterial inoculum. Plates were covered with a sterile lid on the top plate, placed in plastic bags, and incubated at 35 °C for ~18 h. The microplates were viewed from the bottom using a plate viewer and the MIC was read. The MIC was recorded as the lowest concentration of drug that inhibited visible growth of the organism. Uninoculated solubility control plates were also observed for evidence of drug precipitation.

[1] = test system: Primary Skin Fibroblasts cells; test: Cell culture toxicity, Alamar Blue HS fluorescence; assay type: cell-based; conditions: Suppl Fig 9, Primary Skin Fibroblasts cells
in vitro = assay type: cell-based
Experimental: (§1) Stock solutions of the test agents were prepared in DMSO (40 mg/mL) and stored at −20 °C until use. AlamarBlue HS™ cell viability reagent was acquired from Invitrogen (Cat # A50100, Carlsbad, CA). COS7 and HEK293 cells (obtained from ATCC) were cultured and tested at 37 °C in a 5% CO2/100% humidity environment in DMEM media supplemented with 10% fetal bovine serum. Cells were trypsinized, centrifuged, resuspended in cell media, counted on a hemacytometer, and diluted to an appropriate cell density to give the desired number of cells per 300 μl media. Cells were then loaded into 48-well cell culture plates (3548; Corning, Inc.); 300 μl/well at 60,000 cells per well. The cell density was determined in preliminary tests to give linear AlamarBlue HS™ readings over a 3.5 h period for HEK293 cells and 2 h period for COS7 cells after 2 days of growth; 2 wells per plate were loaded with 300 μl/well of cell-free media to provide background readings. Plates were cultured overnight, after which test agent solutions were prepared in media at the highest test concentration (100 ug/mL) and at five serial dilutions, each containing 0.25% DMSO and 0.125% Kolliphor® EL (Cat# 27963, Sigma Aldrich). The compounds concentrations were then loaded in separate columns via 300 μl/well. […] Normalized values representing the amount of AlamarBlue converted to its […] form were calculated for each well using background-corrected absorbances as described by the Alamar-Blue HS protocol information packet available from Invitrogen Technical Support. The fraction of control viability for each agent concentration with each cell line was then determined by the ratio of normalized values for the treated wells to the control wells. […] Values were determined by linear interpolation of fraction of control growth against concentration for the test agent concentrations.

HEK293 cells = test: cells; assay type: cell-based; conditions: Homo sapiens, Hek293 cells, 24 hrs
Experimental: as §1

COS7 cells = test: cells; assay type: cell-based; conditions: for IC50: Chlorocebus aethiops, COS-7, COS7 cells, 24 hrs
Experimental: as §1

AcpS^F50/50A = AcpS^F50/50A (Escherichia coli, UniProt P24224, F49A); test: Inhibition of purified AcpS site-directed mutant by DNM0547; assay type: biochemical, E. coli
Experimental: Using purified E. coli AcpS proteins, we determined the enzyme activity of wild-type and numerous AcpS mutants. Those analyzed by scanning alanine mutagenesis included (S. aureus amino acid residue followed by the corresponding E. coli residue) R46/48, F50/50, R54/53, K63/62, N82/81, and H-/108.
Recombinant His-Tagged AcpS expression was induced by IPTG addition and overnight culture. Cell lysate was obtained by sequential aspiration through 16, 18 and 21 G needles in a buffer of 50 mM Tris-HCl (pH 8.5), 10 mM MgCl2, 2 mM DTT, 5% glycerol, and further adjusted to pH 8.1 with MES. […] In a typical AcpS enzyme activity assay, 57 µM [^3H]acetyl-CoA, 2 µg apo-ACP, 10 mM MgCl2, 5 mM DTT, 50 mM Na phosphate (pH 7.0), and AcpS in a final volume of 10 µL were incubated at room temperature in a 1.5 mL microcentrifuge tube. At 5, 10, 15, and 20 min 2 µL of reaction were added to 750 µl 10% TCA on ice. […] 2 mL of scintillation fluid was added, and the amount of [^3H]-labeled holo-ACP formed was quantified by liquid scintillation counting. […] Routinely, each data point was determined at least by triplicate. […]
coli wild type and AcpS mutants determined using purified proteins. b, AcpS enzyme activity for each AcpS mutant was assayed at increasing concentration of DNM0547 (0-128 µM). IC50 was determined using GraphPad Prism. […]

[2] = Histopathology (H&E) of treated rabbit ischemic ear wounds, dermal toxicity
Experimental: Wounds were excised, fixed, and routine H&E staining was performed. Wounds were examined for pathology and scored in a blinded manner.
Post-wounding, under anesthesia, animals were euthanized with an intravenous injection of Beuthanasia-D at a dosage of 150 mg/kg of body weight. Specimens including the entire wound, along with ~2–3 mm of the normal unwounded skin margins were harvested. Each ear wound specimen was sectioned into halves. For one half of the wound, the wound was placed into a container with 10% neutral buffered formalin and processed for routine histological evaluation. Wounds were scored on a scale of 0–4 at the wound site for erythema, edema, inflammation, granulation, angiogenesis, and epithelialization. Wounds were characterized in a blinded manner by a board-certified member of the College of American Pathologists.

[3] = read-out: IC50 (cell viability)
[4] = read-out: Log IC50 (cell viability) (converted)

AcpS^F50/50A, sequence (P24224 2-126 F49A): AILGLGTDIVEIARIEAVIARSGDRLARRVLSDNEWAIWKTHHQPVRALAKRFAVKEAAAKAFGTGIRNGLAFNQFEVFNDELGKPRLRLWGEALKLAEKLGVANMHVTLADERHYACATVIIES

In the case of `CC(C)c1cc(Cl)ccc1-c1cc(-c2nnn[nH]2)c(-c2ccc(Cl)cc2C(C)C)s1` [DNM0547], the MIC (MRSA (ATCC 33591)) is reported as 2 µg/mL (≈ 4.37 µM), the “Fluorescence (FI)” value ([1]; Conc. 2 ng/ml) is reported as 921 FI and 814 FI and 995 FI and the “Fluorescence (FI)” value ([1]; Conc. 100 ng/ml) is reported as 911 FI and 909 FI and 816 FI and 747 FI. For the same compound, the “Fluorescence (FI)” value ([1]; Conc. 2500 ng/ml) was 895 FI and 904 FI and 819 FI and 790 FI, the “Fluorescence (FI)” value ([1]; Conc. 5000 ng/ml) was 907 FI and 820 FI and 922 FI and 909 FI and the “Fluorescence (FI)” value ([1]; Conc. 20000 ng/ml) was 577 FI and 548 FI and 542 FI and 552 FI. For the same compound, the “Fluorescence (FI)” value ([1]; Conc. 40000 ng/ml) was 62 FI and 57 FI and 54 FI, the “Fluorescence (FI)” value ([1]; Conc. 100000 ng/ml) was 7 FI and 5 FI and the CC50 at 24 h (in vitro; African green monkey) was 21 µg/mL (≈ 45.9 µM). For the same compound, the CC50 at 24 h (in vitro; human) was 41 µg/mL (≈ 89.6 µM), the IC50 (HEK293 cells; [3]) was 41.5 µg/mL (≈ 90.8 µM) and the IC50 (HEK293 cells; [4]) was 41.5 µg/mL (≈ 90.7 µM). For the same compound, the IC50 (COS7 cells; [3]) was 21.2 µg/mL (≈ 46.3 µM), the IC50 (COS7 cells; [4]) was 21.2 µg/mL (≈ 46.3 µM) and the “Fluorescence (FI)” value (COS7 cells; Suppl Fig 9, COS7 cells, Alamar Blue HS, Conc. 40000 ng/ml) was 261 FI. The IC50 (AcpS^F50/50A) was 16.2 µM, the “toxicity to dermal cells, histopathology” value ([2]; 2% cream, 18 days of exposure of the rabbit ear wound) was “no indication of toxicity” and the “erythema, edema, angiogenesis and epithelization scores” value ([2]; 2% cream, 18 days, compared to 2% mupirocin or cream control) was “improved”. The Angiogenesis ([2]; Suppl Fig 7, score per wound) was 1 and 2, the Edema ([2]; Suppl Fig 7, score per wound) was 1 and 2 and the Erythema ([2]; Suppl Fig 7, score per wound) was 1 and 2. The Granulation ([2]; Suppl Fig 7, score per wound) was 2 and 1 and the Inflammation ([2]; Suppl Fig 7, score per wound) was 2 and 3 and 4.
